The target in the test is T1, CRF1 receptors (Homo sapiens, UniProt P34998).
T1 construct: endogenous in cells; host or cells: IMR-32 cells, transformed with 2.5 µM 5'-bromo-2'-deoxyuridine for 10 days; membrane preparation
T1 sequence (P34998 24-415): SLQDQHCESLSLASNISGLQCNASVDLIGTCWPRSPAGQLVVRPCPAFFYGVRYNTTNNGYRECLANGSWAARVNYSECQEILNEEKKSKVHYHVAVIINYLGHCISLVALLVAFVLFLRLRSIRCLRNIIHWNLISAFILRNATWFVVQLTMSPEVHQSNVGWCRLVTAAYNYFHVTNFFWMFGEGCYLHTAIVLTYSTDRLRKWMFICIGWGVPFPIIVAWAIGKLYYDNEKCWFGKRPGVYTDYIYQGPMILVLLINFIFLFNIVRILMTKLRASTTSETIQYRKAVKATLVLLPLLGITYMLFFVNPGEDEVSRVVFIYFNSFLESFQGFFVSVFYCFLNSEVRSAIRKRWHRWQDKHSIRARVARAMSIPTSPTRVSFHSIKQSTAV
The test is described as follows: CRF1 receptor radioligand binding assay ([125I]-oCRF competition, IMR-32 cell membranes). As to conditions: IMR-32 cell membranes, [125I]-oCRF 100 pM; read-out: Ki (CRF-1R). In a few lines:
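Buffer: Tris pH 7.2 with MgCl2, BSA, Triton X-100, aprotinin, leupeptin; reaction stopped with ice-cold wash and filtered. Nonspecific binding set with 10 μM oCRF.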
Consider `CCCN(Cc1cccc(F)c1)Cc1c(C(F)(F)F)nc2n1CCCN2c1c(C)cc(C)cc1Cl` [Example 134, [8-(2-Chloro-4,6-dimethyl-phenyl)-2-trifluoromethyl-5,6,7,8-tetrahydro-imidazo[1,2-a]pyrimidin-3-ylmethyl]-(3-fluoro-benzyl)-propyl-amine], for which the Ki is < 1000 nM.

Take `CCCN(CCc1ccccc1)Cc1c(C(F)(F)F)nc2n1CCCN2c1c(C)cc(C)cc1C` [Example 83, Phenethyl-propyl-[2-trifluoromethyl-8-(2,4,6-trimethyl-phenyl)-5,6,7,8-tetrahydro-imidazo[1,2-a]pyrimidin-3-ylmethyl]-amine]: the inhibition constant (Ki) is < 100 nM.

On to `Cc1cc(C)c(N2CCCn3c2nc(C(F)(F)F)c3CN2CCCCC2C)c(C)c1` (stereo not drawn) [Example 63, 3-(2-Methyl-piperidin-1-ylmethyl)-2-trifluoromethyl-8-(2,4,6-trimethyl-phenyl)-5,6,7,8-tetrahydro-imidazo[1,2-a]pyrimidine], for which the inhibition constant (Ki) is < 1000 nM.

For the molecule `CCc1nc2n(c1C(=O)N(CC)CC1CCC1)CCN2c1c(C)cc(C)cc1Br` [Example 43, 7-(2-Bromo-4,6-dimethyl-phenyl)-2-ethyl-6,7-dihydro-5H-imidazo[1,2-a]imidazole-3-carboxylic acid cyclobutylmethyl-ethyl-amide], the Ki is < 1000 nM.

`Cc1cc(C)c(N2CCCn3c2nc(C(F)(F)F)c3CN(CCC2CC2)CC(F)(F)F)c(C)c1` [Example 90, (2-Cyclopropyl-ethyl)-(2,2,2-trifluoro-ethyl)-[2-trifluoromethyl-8-(2,4,6-trimethyl-phenyl)-5,6,7,8-tetrahydro-imidazo[1,2-a]pyrimidin-3-ylmethyl]-amine]: the Ki is < 1000 nM.

Take `CCN(CCc1ccccc1)Cc1c(C(F)(F)F)nc2n(-c3c(C)cc(C)cc3C)c3ncccc3n12` [Example 218, Ethyl-phenethyl-[2-trifluoromethyl-8-(2,4,6-trimethyl-phenyl)-8H-1,3a,7,8-tetraaza-cyclopenta[α]inden-3-ylmethyl]-amine]: the Ki is < 1000 nM.

For `CCCCN(Cc1ccccc1)Cc1c(C(F)(F)F)nc2n1CCCN2c1c(C)cc(C)cc1Cl` [Example 105, Benzyl-butyl-[8-(2-chloro-4,6-dimethyl-phenyl)-2-trifluoromethyl-5,6,7,8-tetrahydro-imidazo[1,2-a]pyrimidin-3-ylmethyl]-amine], the inhibition constant (Ki) is < 1000 nM.

Take `Cc1cc(C)c(-n2c3ncccc3n3c(CN(CCC(F)(F)F)Cc4ccccc4)c(C(F)(F)F)nc23)c(C)c1` [Example 227, Benzyl-[2-trifluoromethyl-8-(2,4,6-trimethyl-phenyl)-8H-1,3a,7,8-tetraaza-cyclopenta[α]inden-3-ylmethyl]-(3,3,3-trifluoro-propyl)-amine]: the Ki is < 1000 nM.

Turning to `CCCN(Cc1c(CC)nc2n(-c3c(C)cc(C)cc3C)c3ccccc3n12)CC1CC1` [Example 147, Cyclopropylmethyl-[2-ethyl-8-(2,4,6-trimethyl-phenyl)-8H-1,3a,8-triaza-cyclopenta[a]inden-3-ylmethyl]-propyl-amine], the Ki is < 100 nM.

Take `Cc1cc(C)c(N2CCCn3c2nc(C(F)(F)F)c3CN(CCC(F)(F)F)Cc2ccc(F)cc2)c(Cl)c1` [Example 127, [8-(2-Chloro-4,6-dimethyl-phenyl)-2-trifluoromethyl-5,6,7,8-tetrahydro-imidazo[1,2-a]pyrimidin-3-ylmethyl]-(4-fluoro-benzyl)-(3,3,3-trifluoro-propyl)-amine]: the inhibition constant (Ki) was < 1000 nM.

Regarding `CCN(CCC1CC1)Cc1c(C(F)(F)F)nc2n1CCCN2c1c(C)cc(C)cc1Cl` [Example 123, [8-(2-Chloro-4,6-dimethyl-phenyl)-2-trifluoromethyl-5,6,7,8-tetrahydro-imidazo[1,2-a]pyrimidin-3-ylmethyl]-(2-cyclopropyl-ethyl)-ethyl-amine], the inhibition constant Ki was < 1000 nM.

Regarding `CCCCN(Cc1ccccc1)Cc1c(C(F)(F)F)nc2n(-c3c(C)cc(C)cc3C)c3ncccc3n12` [Example 235, Benzyl-butyl-[2-trifluoromethyl-8-(2,4,6-trimethyl-phenyl)-8H-1,3a,7,8-tetraaza-cyclopenta[α]inden-3-ylmethyl]-a mine], the inhibitory constant (Ki) was < 10000 nM.

Turning to `CCCN(CCc1ccccc1)C(=O)c1c(CC)nc2n1CCN2c1c(C)cc(C)cc1C` [Example 13, 2-Ethyl-7-(2,4,6-trimethyl-phenyl)-6,7-dihydro-5H-imidazo[1,2-a]imidazole-3-carboxylic acid phenethyl-propyl-amide], the Ki was < 1000 nM.

In the case of `CCCN(CCC(F)(F)F)Cc1c(C(F)(F)F)nc2n1CCCN2c1c(C)cc(C)cc1Cl` [Example 116, [8-(2-Chloro-4,6-dimethyl-phenyl)-2-trifluoromethyl-5,6,7,8-tetrahydro-imidazo[1,2-a]pyrimidin-3-ylmethyl]-propyl-(3,3,3-trifluoro-propyl)-amine], the Ki was < 1000 nM.

As to `Cc1cc(C)c(N2CCCn3c2nc(C(F)(F)F)c3CN(CCc2ccccc2)CCC(F)(F)F)c(C)c1` [Example 81, Phenethyl-[2-trifluoromethyl-8-(2,4,6-trimethyl-phenyl)-5,6,7,8-tetrahydro-imidazo[1,2-a]pyrimidin-3-ylmethyl]-(3,3,3-trifluoro-propyl)-amine], the Ki is < 1000 nM.

As to `CCCN(CCOC)Cc1c(C(F)(F)F)nc2n1CCCN2c1c(C)cc(C)cc1Cl` [Example 110, [8-(2-Chloro-4,6-dimethyl-phenyl)-2-trifluoromethyl-5,6,7,8-tetrahydro-imidazo[1,2-a]pyrimidin-3-ylmethyl]-(2-methoxy-ethyl)-propyl-amine], the Ki is < 1000 nM.

As for `CCCN(Cc1c(C(F)(F)F)nc2n(-c3c(C)cc(C)cc3C)c3ncccc3n12)CC(F)(F)C(F)(F)F` [Example 224, (2,2,3,3,3-Pentafluoro-propyl)-propyl-[2-trifluoromethyl-8-(2,4,6-trimethyl-phenyl)-8H-1,3a,7,8-tetraaza-cyclopenta[α]inden-3-ylmethyl]-amine], the inhibitory constant (Ki) is < 1000 nM.

As to `CCCN(CC1CC1)C(=O)c1c(C)nc2n(-c3ccc(Cl)cc3Cl)c3ccccc3n12` [Example 143, 8-(2,4-Dichloro-phenyl)-2-methyl-8H-1,3a,8-triaza-cyclopenta[a]indene-3-carboxylic acid cyclopropylmethyl-propyl-amide], the Ki was < 10000 nM.

Consider `Cc1cc(C)c(N2CCCn3c2nc(C(F)(F)F)c3CN(CCC2CC2)CC(F)(F)F)c(Cl)c1` [Example 126, [8-(2-Chloro-4,6-dimethyl-phenyl)-2-trifluoromethyl-5,6,7,8-tetrahydro-imidazo[1,2-a]pyrimidin-3-ylmethyl]-(2-cyclopropyl-ethyl)-(2,2,2-trifluoro-ethyl)-amine], for which the Ki is < 1000 nM.

For the molecule `CCCN(CC1CC1)C(=O)c1c(CC)nc2n(-c3c(C)cc(C)cc3C)c(Cl)cn12` [Example 290, 6-Chloro-2-ethyl-7-(2,4,6-trimethylphenyl)-7H-imidazo[1,2-a]imidazole-3-carboxylic acid N-cyclopropylmethyl-N-propylamide], the Ki was < 100 nM.

For the molecule `CCc1nc2n(-c3ccc(Cl)cc3Cl)c(Cl)cn2c1C(=O)N(CC1CC1)CC(F)(F)F` [Example 286, 6-Chloro-2-ethyl-7-(2,4-dichlorophenyl)-7H-imidazo[1,2-a]imidazole-3-carboxylic acid N-cyclopropylmethyl-N-(2,2,2-trifluoroethyl)amide], the Ki was < 10 nM.

Consider `CCC=C(CCC)c1c(CC)nc2n1CCN2c1c(C)cc(C)cc1C` [Example 48, 6-Ethyl-5-(1-propyl-but-1-enyl)-1-(2,4,6-trimethyl-phenyl)-2,3-dihydro-1H-imidazo[1,2-a]imidazole], for which the inhibition constant (Ki) is < 100 nM.

As to `Cc1cc(C)c(N2CCCn3c2nc(C(F)(F)F)c3CN2CCOCC2)c(Cl)c1` [Example 97, 8-(2-Chloro-4,6-dimethyl-phenyl)-3-morpholin-4-ylmethyl-2-trifluoromethyl-5,6,7,8-tetrahydro-imidazo[1,2-a]pyrimidine], the Ki was < 1000 nM.

On to `CCc1nc2n(c1C(=O)N(CCC(F)(F)F)CC1CC1)CCN2c1ccc(C(C)C)cc1Br` [Example 39, 7-(2-Bromo-4-isopropyl-phenyl)-2-ethyl-6,7-dihydro-5H-imidazo[1,2-a]imidazole-3-carboxylic acid cyclopropylmethyl-(3,3,3-trifluoro-propyl)-amide], for which the Ki was < 10000 nM.

For `CCCN(CCC)Cc1c(C(F)(F)F)nc2n(-c3ccc(C(C)C)cc3Br)c3ccccc3n12` [Example 206, [8-(2-Bromo-4-isopropyl-phenyl)-2-trifluoromethyl-8H-1,3a,8-triaza-cyclopenta[α]inden-3-ylmethyl]-dipropyl-amine], the inhibition constant Ki was < 10000 nM.

On to `CCCN(Cc1c(C(F)(F)F)nc2n(-c3c(C)cc(C)cc3C)c3ncccc3n12)CC(F)(F)F` [Example 222, Propyl-(2,2,2-trifluoro-ethyl)-[2-trifluoromethyl-8-(2,4,6-trimethyl-phenyl)-8H-1,3a,7,8-tetraaza-cyclopenta[α]inden-3-ylmethyl]-amine], for which the inhibition constant (Ki) was < 1000 nM.

For the molecule `Cc1cc(C)c(N2CCCn3c2nc(C(F)(F)F)c3CN(CC2CCC2)CC(F)(F)F)c(C)c1` [Example 76, Cyclobutylmethyl-(2,2,2-trifluoro-ethyl)-[2-trifluoromethyl-8-(2,4,6-trimethyl-phenyl)-5,6,7,8-tetrahydro-imidazo[1,2-a]pyrimidin-3-ylmethyl]-amine], the inhibitory constant (Ki) was < 100 nM.

As usually defined, the Ki is the dissociation constant of the complex between target and ligand, obtained from inhibition or displacement.

The values above are taken from US7125990B2, “Imidazolyl derivatives as corticotropin releasing factor inhibitors” (Bristol-Myers Squibb COmpany, priority 2001, dated 2006).
